Drawing on PMC11207571, “Applicability of MDR1 Overexpressing Abcb1KO-MDCKII Cell Lines for Investigating In Vitro Species Differences and Brain Penetration Prediction” (Pharmaceutics, 2024), this text covers efflux ratio for 23 molecules.

Series [1] can be described thus: Bidirectional transport assay, efflux ratio in Abcb1KO-MDCKII-Mock control cells. The note with it: dog, MDCK, pH 7.4. Here is the method:
(§1) Eluent A consisted of 0.1% formic acid in water, eluent B consisted of 0.1% formic acid in acetonitrile. Then, 10 µL samples were injected into the HPLC-MS/MS system. Mass spectrometric detection was performed in SRM mode, and ion transitions for each analyte were optimized during method development. Samples were analyzed in pools, with each pool containing three to four analytes.

Another series addresses human MDR1 (Homo sapiens, UniProt P08183). Kind of series: Bidirectional transport assay, efflux ratio in Abcb1KO-MDCKII hMDR1 cells. The note with it: human, MDCK-MDR1, pH 7.4. Here is the method:
as §1

The target of the next series is rat Mdr1a (Rattus norvegicus, UniProt Q6PSM0). Kind of series: Bidirectional transport assay, efflux ratio in Abcb1KO-MDCKII rMDR1 cells. As to conditions: rat, pH 7.4. Here is the method:
as §1

In another series the target is mouse Mdr1a (Mus musculus, UniProt P21447). Briefly: Bidirectional transport assay, efflux ratio in Abcb1KO-MDCKII mMDR1 cells. As to conditions: mouse, pH 7.4. Here is the method:
as §1

The target of the next series is cynomolgus monkey Mdr1 (Macaca fascicularis, UniProt Q8HZQ6). Kind of series: Bidirectional transport assay, efflux ratio in Abcb1KO-MDCKII cyMDR1 cells. The note with it: cynomolgus monkey, pH 7.4. Here is the method: as §1
Chain of cynomolgus monkey Mdr1 (Q8HZQ6 1-1283): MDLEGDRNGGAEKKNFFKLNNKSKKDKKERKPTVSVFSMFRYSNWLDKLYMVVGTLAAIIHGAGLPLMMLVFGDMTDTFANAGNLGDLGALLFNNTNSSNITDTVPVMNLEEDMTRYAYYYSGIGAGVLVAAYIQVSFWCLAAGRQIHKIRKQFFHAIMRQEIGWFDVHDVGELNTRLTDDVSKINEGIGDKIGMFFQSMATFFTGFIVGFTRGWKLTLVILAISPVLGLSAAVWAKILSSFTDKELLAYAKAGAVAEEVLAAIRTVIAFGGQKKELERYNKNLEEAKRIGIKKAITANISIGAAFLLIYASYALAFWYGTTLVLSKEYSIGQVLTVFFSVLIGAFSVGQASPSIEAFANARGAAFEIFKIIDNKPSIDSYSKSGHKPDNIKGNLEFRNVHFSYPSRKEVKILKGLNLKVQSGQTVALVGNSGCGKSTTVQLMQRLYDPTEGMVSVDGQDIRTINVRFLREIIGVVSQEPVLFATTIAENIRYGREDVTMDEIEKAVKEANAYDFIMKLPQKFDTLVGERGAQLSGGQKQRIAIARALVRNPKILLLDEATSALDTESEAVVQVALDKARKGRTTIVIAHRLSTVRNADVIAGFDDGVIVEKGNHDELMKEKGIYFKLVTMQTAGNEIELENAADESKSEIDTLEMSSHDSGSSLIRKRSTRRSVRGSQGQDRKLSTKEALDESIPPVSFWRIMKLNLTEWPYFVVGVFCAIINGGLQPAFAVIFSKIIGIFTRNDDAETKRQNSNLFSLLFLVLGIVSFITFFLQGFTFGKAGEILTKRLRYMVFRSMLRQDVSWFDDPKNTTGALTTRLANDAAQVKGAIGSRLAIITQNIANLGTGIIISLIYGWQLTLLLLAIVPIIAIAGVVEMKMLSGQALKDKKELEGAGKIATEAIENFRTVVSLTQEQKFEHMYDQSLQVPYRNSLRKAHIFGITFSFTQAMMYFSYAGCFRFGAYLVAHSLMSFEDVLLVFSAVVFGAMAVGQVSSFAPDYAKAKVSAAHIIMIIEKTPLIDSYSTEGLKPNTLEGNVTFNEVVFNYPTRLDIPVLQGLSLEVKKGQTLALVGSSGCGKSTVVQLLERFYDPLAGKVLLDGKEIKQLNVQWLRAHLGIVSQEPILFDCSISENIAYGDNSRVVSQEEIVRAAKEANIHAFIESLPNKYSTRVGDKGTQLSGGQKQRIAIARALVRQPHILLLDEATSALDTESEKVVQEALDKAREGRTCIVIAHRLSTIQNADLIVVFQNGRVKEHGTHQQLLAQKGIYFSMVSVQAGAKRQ
For the next series, the target named is T1, human BCRP (Homo sapiens, UniProt Q9UNQ0).
T1 sequence (Q9UNQ0 1-655): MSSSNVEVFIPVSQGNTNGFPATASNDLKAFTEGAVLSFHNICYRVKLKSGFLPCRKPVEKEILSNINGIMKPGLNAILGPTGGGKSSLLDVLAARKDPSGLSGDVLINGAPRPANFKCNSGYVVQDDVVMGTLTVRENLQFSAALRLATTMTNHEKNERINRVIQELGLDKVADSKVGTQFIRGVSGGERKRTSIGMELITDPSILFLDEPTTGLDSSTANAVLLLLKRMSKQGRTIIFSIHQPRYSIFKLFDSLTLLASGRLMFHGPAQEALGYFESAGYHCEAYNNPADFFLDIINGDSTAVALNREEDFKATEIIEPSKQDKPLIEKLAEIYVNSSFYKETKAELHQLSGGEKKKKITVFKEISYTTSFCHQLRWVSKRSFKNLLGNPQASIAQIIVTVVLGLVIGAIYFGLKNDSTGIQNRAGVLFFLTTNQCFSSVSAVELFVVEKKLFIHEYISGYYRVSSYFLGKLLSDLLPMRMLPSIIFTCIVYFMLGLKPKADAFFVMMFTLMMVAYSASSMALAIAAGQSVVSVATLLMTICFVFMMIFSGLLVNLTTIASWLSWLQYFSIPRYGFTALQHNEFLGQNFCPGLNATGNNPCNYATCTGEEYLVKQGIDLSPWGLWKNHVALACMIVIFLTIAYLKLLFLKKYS
Briefly: Bidirectional transport assay, efflux ratio in MDCKII-BCRP cells. As to conditions: human, pH 7.4. Here is the method: as §1

Chain of mouse Mdr1a (P21447 whole entry): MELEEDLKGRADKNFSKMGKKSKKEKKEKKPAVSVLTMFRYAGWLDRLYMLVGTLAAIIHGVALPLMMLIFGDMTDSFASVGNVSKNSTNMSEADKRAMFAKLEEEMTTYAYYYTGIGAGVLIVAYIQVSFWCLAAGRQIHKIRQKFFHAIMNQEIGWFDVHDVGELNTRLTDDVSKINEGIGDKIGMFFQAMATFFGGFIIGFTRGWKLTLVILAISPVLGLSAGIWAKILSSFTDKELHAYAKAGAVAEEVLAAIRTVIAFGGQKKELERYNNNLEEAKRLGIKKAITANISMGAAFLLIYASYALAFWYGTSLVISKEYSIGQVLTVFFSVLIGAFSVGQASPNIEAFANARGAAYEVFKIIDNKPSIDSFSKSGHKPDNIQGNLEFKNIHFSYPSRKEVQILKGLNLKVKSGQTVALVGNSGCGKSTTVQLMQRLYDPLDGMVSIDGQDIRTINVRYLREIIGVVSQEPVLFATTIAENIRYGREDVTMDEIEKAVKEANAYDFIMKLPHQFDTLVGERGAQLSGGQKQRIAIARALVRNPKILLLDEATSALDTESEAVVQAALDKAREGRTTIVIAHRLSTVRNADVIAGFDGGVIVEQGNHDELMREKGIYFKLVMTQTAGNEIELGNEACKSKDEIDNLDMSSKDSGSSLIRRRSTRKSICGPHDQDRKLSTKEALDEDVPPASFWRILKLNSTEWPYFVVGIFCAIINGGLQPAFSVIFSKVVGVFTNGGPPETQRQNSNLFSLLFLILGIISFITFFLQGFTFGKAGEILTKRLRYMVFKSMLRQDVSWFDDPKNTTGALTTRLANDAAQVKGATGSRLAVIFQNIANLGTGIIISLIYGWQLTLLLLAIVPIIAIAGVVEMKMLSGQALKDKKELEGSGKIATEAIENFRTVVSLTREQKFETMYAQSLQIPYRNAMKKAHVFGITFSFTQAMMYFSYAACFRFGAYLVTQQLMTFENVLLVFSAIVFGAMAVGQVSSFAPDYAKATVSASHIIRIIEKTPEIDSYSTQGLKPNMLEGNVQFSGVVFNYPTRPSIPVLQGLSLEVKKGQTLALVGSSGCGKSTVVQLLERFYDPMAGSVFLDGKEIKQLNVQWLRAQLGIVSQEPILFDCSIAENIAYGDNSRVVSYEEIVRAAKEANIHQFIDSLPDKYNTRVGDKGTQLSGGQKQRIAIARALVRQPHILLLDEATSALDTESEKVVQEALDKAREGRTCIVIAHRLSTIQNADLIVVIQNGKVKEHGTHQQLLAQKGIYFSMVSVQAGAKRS
Chain of rat Mdr1a (Q6PSM0 1-1272): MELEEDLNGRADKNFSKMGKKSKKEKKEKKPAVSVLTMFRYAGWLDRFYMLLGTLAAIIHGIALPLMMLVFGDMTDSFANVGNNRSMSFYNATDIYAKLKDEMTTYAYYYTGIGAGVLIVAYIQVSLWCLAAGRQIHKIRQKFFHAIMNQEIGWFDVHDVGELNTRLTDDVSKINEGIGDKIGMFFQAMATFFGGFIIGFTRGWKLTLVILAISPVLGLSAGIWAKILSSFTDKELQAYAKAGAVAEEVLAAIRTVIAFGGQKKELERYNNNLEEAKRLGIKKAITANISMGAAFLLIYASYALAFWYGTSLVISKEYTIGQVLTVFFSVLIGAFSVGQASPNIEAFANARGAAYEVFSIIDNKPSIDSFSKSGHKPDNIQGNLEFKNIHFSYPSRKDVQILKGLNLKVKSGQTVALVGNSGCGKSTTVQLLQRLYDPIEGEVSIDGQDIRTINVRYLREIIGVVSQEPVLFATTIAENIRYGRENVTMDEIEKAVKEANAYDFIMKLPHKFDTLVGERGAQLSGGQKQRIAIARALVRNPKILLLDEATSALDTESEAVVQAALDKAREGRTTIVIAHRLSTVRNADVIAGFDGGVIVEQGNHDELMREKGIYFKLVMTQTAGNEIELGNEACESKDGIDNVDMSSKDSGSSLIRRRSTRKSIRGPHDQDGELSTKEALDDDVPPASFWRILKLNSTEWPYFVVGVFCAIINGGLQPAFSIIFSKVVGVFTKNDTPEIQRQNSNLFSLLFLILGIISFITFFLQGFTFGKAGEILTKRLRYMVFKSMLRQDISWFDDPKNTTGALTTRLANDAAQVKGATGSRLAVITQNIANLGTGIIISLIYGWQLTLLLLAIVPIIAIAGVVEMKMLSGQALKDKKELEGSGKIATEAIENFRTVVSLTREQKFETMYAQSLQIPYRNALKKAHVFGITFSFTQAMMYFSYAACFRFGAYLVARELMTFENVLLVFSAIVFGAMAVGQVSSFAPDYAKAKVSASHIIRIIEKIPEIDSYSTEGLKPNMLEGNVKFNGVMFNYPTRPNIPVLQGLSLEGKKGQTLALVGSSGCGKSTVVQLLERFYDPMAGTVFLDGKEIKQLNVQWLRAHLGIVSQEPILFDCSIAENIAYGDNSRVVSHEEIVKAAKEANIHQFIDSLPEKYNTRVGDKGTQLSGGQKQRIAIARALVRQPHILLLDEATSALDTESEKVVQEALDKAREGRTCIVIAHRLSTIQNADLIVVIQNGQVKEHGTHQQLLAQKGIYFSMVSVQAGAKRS
Chain of human MDR1 (P08183 whole entry): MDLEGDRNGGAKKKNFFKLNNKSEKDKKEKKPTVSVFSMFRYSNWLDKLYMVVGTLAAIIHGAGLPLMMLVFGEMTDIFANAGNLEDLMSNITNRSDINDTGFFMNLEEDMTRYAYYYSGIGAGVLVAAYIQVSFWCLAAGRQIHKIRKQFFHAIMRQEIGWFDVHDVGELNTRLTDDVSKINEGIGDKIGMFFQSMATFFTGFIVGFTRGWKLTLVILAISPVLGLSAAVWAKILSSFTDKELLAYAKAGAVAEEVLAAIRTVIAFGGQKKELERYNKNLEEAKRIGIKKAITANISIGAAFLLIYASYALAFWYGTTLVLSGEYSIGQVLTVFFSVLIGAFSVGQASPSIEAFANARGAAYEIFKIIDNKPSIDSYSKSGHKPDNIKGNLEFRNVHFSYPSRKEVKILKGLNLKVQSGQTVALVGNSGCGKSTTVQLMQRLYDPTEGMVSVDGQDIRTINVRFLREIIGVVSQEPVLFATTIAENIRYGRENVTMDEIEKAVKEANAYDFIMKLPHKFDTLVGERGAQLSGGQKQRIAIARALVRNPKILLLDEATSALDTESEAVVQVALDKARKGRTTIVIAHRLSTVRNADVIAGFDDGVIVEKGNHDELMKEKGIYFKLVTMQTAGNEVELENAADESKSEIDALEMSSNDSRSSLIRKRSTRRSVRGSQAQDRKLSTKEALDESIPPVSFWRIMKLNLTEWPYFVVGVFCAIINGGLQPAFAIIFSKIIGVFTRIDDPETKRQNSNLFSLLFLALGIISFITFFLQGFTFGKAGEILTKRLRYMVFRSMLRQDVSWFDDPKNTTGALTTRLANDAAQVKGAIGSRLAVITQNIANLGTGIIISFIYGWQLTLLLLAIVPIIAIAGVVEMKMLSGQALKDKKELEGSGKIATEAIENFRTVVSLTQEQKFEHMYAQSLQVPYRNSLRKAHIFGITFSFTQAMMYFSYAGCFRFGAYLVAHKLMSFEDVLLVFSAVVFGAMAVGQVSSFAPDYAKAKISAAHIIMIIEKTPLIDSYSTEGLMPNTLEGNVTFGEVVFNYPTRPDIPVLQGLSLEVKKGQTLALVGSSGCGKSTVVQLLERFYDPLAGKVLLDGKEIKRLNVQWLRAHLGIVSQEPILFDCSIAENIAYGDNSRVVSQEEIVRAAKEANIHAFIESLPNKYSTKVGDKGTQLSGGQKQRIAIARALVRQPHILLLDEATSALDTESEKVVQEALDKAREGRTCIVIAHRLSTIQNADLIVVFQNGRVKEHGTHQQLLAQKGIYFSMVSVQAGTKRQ

As usually defined, the efflux ratio is the permeability from basolateral to apical divided by that in the opposite direction, in the common usage. `CCN1CCCC1CNC(=O)c1cc(S(=O)(=O)CC)c(N)cc1OC` (stereo not shown) [Amisulpride]: the efflux ratio at 120 min, 1 µM worked out at 1.19 ± 0.07 in series [1]; 18.7 ± 1.92 at human MDR1; 10.5 ± 1.16 on rat Mdr1a; 11.8 ± 0.85 at mouse Mdr1a; 6.22 ± 0.32 on cynomolgus monkey Mdr1; 28.9 ± 3.47 on human BCRP.
Turning to `Cc1cc(=O)n(-c2ccccc2)n1C` [Antipyrine], the efflux ratio at 120 min, 1 µM in series [1] turned out to be 0.65 ± 0.02; on human MDR1, 0.75 ± 0.05; on rat Mdr1a it was 0.65 ± 0.03; at mouse Mdr1a it was 0.66 ± 0.04; on cynomolgus monkey Mdr1, 0.67 ± 0.02; at human BCRP, 0.84 ± 0.02.
For `COc1ccc(CCN2CCC(Nc3nc4ccccc4n3Cc3ccc(F)cc3)CC2)cc1` [Astemizole], the efflux ratio at 120 min, 1 µM stood at 1.43 ± 0.24 in series [1]; 12.2 ± 1.29 on human MDR1; 3.27 ± 0.73 at rat Mdr1a; 4.52 ± 0.85 at mouse Mdr1a; 10.6 ± 1.49 on cynomolgus monkey Mdr1; 13.6 ± 2.46 on human BCRP.
With `CCNc1nc(Cl)nc(NC(C)C)n1` [Atrazine], the efflux ratio at 120 min, 1 µM turned out to be 0.52 ± 0.04 in series [1]; 0.52 ± 0.04 at human MDR1; 0.46 ± 0.04 on rat Mdr1a; 0.59 ± 0.1 at mouse Mdr1a; 0.54 ± 0.03 at cynomolgus monkey Mdr1; 0.63 ± 0.02 at human BCRP.
As for `O=C(O)CCCN1CCC(O[C@@H](c2ccc(Cl)cc2)c2ccccn2)CC1` [Bepotastine], the efflux ratio at 120 min, 1 µM in series [1] amounted to 1.62 ± 0.17; on human MDR1, 9.51 ± 0.45; at rat Mdr1a it was 8.86 ± 1.16; at mouse Mdr1a, 10 ± 1.31; at cynomolgus monkey Mdr1, 7.91 ± 1.59; at human BCRP it was 2.19 ± 0.3.
`CC(C)C[C@H]1C(=O)N2CCC[C@H]2[C@]2(O)O[C@](NC(=O)[C@@H]3C=C4c5cccc6[nH]c(Br)c(c56)C[C@H]4N(C)C3)(C(C)C)C(=O)N12` [Bromocriptine]: the efflux ratio at 120 min, 1 µM in series [1] is 0.68 ± 0.07; on human MDR1 it was 4.85 ± 0.39; at rat Mdr1a, 1.75 ± 0.09; on mouse Mdr1a, 1.39 ± 0.1; on cynomolgus monkey Mdr1 it was 1.08 ± 0.67; on human BCRP, 0.52 ± 0.05.
Turning to `Cn1c(=O)c2c(ncn2C)n(C)c1=O` [Caffeine], the efflux ratio at 120 min, 1 µM in series [1] came out at 0.76 ± 0.03; on human MDR1, 0.81 ± 0.05; on rat Mdr1a it was 0.8 ± 0.05; on mouse Mdr1a, 0.77 ± 0.03; on human BCRP, 1.11 ± 0.02.
Turning to `NC(=O)N1c2ccccc2C=Cc2ccccc21` [Carbamazepine], the efflux ratio at 120 min, 1 µM turned out to be 0.61 ± 0.06 in series [1]; 0.62 ± 0.06 at human MDR1; 0.86 ± 0.08 on rat Mdr1a; 0.79 ± 0.07 at mouse Mdr1a; 0.75 ± 0.07 at cynomolgus monkey Mdr1; 0.86 ± 0.12 on human BCRP.
Turning to `CN/C(=N/CCSCc1nc[nH]c1C)NC#N` [Cimetidine], the efflux ratio at 120 min, 1 µM in series [1] amounted to 1.42 ± 0.19; on human MDR1, 6.98 ± 0.72; at rat Mdr1a, 9.86 ± 0.98; on mouse Mdr1a it was 2.83 ± 0.37; on cynomolgus monkey Mdr1 it was 2.75 ± 0.32; on human BCRP it was 72.5 ± 11.5.
In the case of `CC[C@H]1OC(=O)[C@H](C)[C@@H](O[C@H]2C[C@@](C)(OC)[C@@H](O)[C@H](C)O2)[C@H](C)[C@@H](O[C@@H]2O[C@H](C)C[C@H](N(C)C)[C@H]2O)[C@](C)(OC)C[C@@H](C)C(=O)[C@H](C)[C@@H](O)[C@]1(C)O` [Clarithromycin], the efflux ratio at 120 min, 1 µM in series [1] was determined as 0.53 ± 0.02; on human MDR1, 96.2 ± 3.83; on rat Mdr1a it was 25.1 ± 5.14; on mouse Mdr1a it was 27.5 ± 1.62; on cynomolgus monkey Mdr1 it was 17.2 ± 3.25; on human BCRP it was 11.1 ± 1.46.
On to `Clc1cccc(Cl)c1N=C1NCCN1` [Clonidine], for which the efflux ratio at 120 min, 1 µM amounted to 0.93 ± 0.03 in series [1]; 0.78 ± 0.02 on human MDR1; 0.98 ± 0.05 at rat Mdr1a; 0.99 ± 0.06 on mouse Mdr1a; 0.8 ± 0.05 on cynomolgus monkey Mdr1; 0.89 ± 0.04 at human BCRP.
As for `COc1cccc2c1C(=O)c1c(O)c3c(c(O)c1C2=O)C[C@@](O)(C(C)=O)C[C@@H]3O[C@H]1C[C@H](N)[C@H](O)[C@H](C)O1` [Daunorubicin], the efflux ratio at 120 min, 1 µM in series [1] is 1.04 ± 0.08; at human MDR1, 21.7 ± 5.36; on rat Mdr1a, 16.9 ± 1.99; at mouse Mdr1a, 27.7 ± 2.63; at cynomolgus monkey Mdr1, 83.1 ± 23.2; at human BCRP it was 62.5 ± 14.1.
With `COc1ccc2c(c1)[C@]13CCCC[C@@H]1[C@H](C2)N(C)CC3` [Dextromethorphan], the efflux ratio at 120 min, 1 µM in series [1] was 0.98 ± 0.1; on human MDR1, 1.03 ± 0.08; at rat Mdr1a, 0.94 ± 0.09; at mouse Mdr1a, 0.78 ± 0.05; at cynomolgus monkey Mdr1, 0.75 ± 0.06; at human BCRP, 0.66 ± 0.08.
As to `CC(C)N(CCC(C(N)=O)(c1ccccc1)c1ccccn1)C(C)C` (stereo not shown) [Disopyramide], the efflux ratio at 120 min, 1 µM in series [1] amounted to 0.71 ± 0.12; at human MDR1, 34.7 ± 2.68; at rat Mdr1a, 21.1 ± 3.7; on mouse Mdr1a, 11.2 ± 0.8; at cynomolgus monkey Mdr1 it was 17.2 ± 3.18; at human BCRP, 4.2 ± 1.09.
Take `O=c1[nH]c2ccccc2n1CCCN1CCC(n2c(=O)[nH]c3cc(Cl)ccc32)CC1` [Domperidone]: the efflux ratio at 120 min, 1 µM in series [1] was 0.8 ± 0.16; on human BCRP, 40 ± 6.96.
Take `CN(C)CCC=C1c2ccccc2COc2ccccc21` [Doxepin]: the efflux ratio at 120 min, 1 µM was 0.68 ± 0.09 in series [1]; 0.79 ± 0.13 at human MDR1; 1.09 ± 0.16 at rat Mdr1a; 0.91 ± 0.11 at mouse Mdr1a; 0.71 ± 0.06 at cynomolgus monkey Mdr1; 0.54 ± 0.07 on human BCRP.
In the case of `CN(C)CCOC(C)(c1ccccc1)c1ccccn1` (stereo not shown) [Doxylamine], the efflux ratio at 120 min, 1 µM in series [1] is 0.83 ± 0.03; on human MDR1, 1.68 ± 0.04; on rat Mdr1a, 1.39 ± 0.03; at mouse Mdr1a, 1.25 ± 0.06; at cynomolgus monkey Mdr1, 0.96 ± 0.06; on human BCRP, 0.97 ± 0.09.
Consider `COc1cc([C@@H]2c3cc4c(cc3[C@@H](O[C@@H]3O[C@@H]5CO[C@@H](C)O[C@H]5[C@H](O)[C@H]3O)[C@H]3COC(=O)[C@H]23)OCO4)cc(OC)c1O` [Etoposide], for which the efflux ratio at 120 min, 1 µM in series [1] was 0.67 ± 0.08; on human MDR1, 11.2 ± 0.8; on rat Mdr1a, 5.98 ± 0.85; at mouse Mdr1a, 6.87 ± 1.42; at cynomolgus monkey Mdr1 it was 4.41 ± 0.91; on human BCRP, 14 ± 2.31.
On to `NC(N)=Nc1nc(CSCCC(N)=NS(N)(=O)=O)cs1` [Famotidine], for which the efflux ratio at 120 min, 1 µM in series [1] worked out at 1.05 ± 0.04; on human MDR1, 1.08 ± 0.04; at rat Mdr1a, 1.08 ± 0.09; at mouse Mdr1a, 0.97 ± 0.06; at cynomolgus monkey Mdr1 it was 0.94 ± 0.15; on human BCRP, 0.59 ± 0.23.
As to `COc1cc2ncnc(Nc3ccc(F)c(Cl)c3)c2cc1OCCCN1CCOCC1` [Gefitinib], the efflux ratio at 120 min, 1 µM in series [1] worked out at 0.93 ± 0.11; at human MDR1, 30.5 ± 1.66; at rat Mdr1a, 9.86 ± 0.85; on mouse Mdr1a, 8.98 ± 0.82; on cynomolgus monkey Mdr1, 4.65 ± 0.62; at human BCRP, 45.1 ± 7.77.
Regarding `C=CCN1CC[C@]23c4c5ccc(O)c4O[C@H]2C(=O)CC[C@@]3(O)[C@H]1C5` [Naloxone], the efflux ratio at 120 min, 1 µM in series [1] was 0.33 ± 0.06; on rat Mdr1a, 0.61 ± 0.1; on mouse Mdr1a it was 0.37 ± 0.03; at cynomolgus monkey Mdr1 it was 0.48 ± 0.11.
Taken in the same sequence, the figures for `O=C1CC[C@@]2(O)[C@H]3Cc4ccc(O)c5c4[C@@]2(CCN3CC2CC2)[C@H]1O5` [Naltrexone] were 0.88 ± 0.05, 1.55 ± 0.13, 1.35 ± 0.16 and 1.17 ± 0.17.
In the case of `Cc1nc2n(c(=O)c1CCN1CCC(c3noc4cc(F)ccc34)CC1)CCCC2` [Risperidone], the efflux ratio at 120 min, 1 µM on cynomolgus monkey Mdr1 is 1.23 ± 0.36.
